Results from ChEMBL document CHEMBL5335833, “Asperustins A-J: Austocystins with Immunosuppressive and Cytotoxic Activities from Aspergillus ustus NRRL 5856” (J Nat Prod, 2024).

Tests used:
[1] = test system: Splenocyte; assay: Immunosuppressive activity in BALB/c mouse splenocytes assessed as reduction in ConA-induced mouse T-lymphocytes proliferation; format: functional, cell-based
[2] = test system: Splenocyte; assay: Immunosuppressive activity in BALB/c mouse splenocytes assessed as reduction in […]-induced mouse B-lymphocyte proliferation; format: functional, cell-based
[3] = test system: MCF7; assay: Cytotoxicity against human MCF7 cells; format: functional, cell-based
[4] = Cytotoxicity against mouse T-lymphocytes; format: toxicity, cell-based, T-cell
[5] = Cytotoxicity against mouse B-lymphocytes; format: toxicity, cell-based, B-cell
[6] = Selectivity index, ratio of CC50 for cytotoxicity against mouse T lymphocytes to IC50 for Immunosuppressive activity in BALB/c mouse splenocytes assessed as reduction in ConA-induced mouse T-lymphocytes proliferation; format: toxicity, cell-based
[7] = Selectivity index, ratio of CC50 for cytotoxicity against mouse T lymphocytes to IC50 for Immunosuppressive activity in BALB/c mouse splenocytes assessed as reduction in […]-induced mouse B-lymphocytes proliferation; format: toxicity, cell-based
[8] = test system: Splenocyte; assay: Immunosuppressive activity in LPS-induced BALB/c mouse splenocyte assessed as reduction in IL-6 cytokine level incubated for 48 hrs by ELISA assay; format: functional, cell-based; details: dose 0.2-5 µM

| Compound | IC50 [1] [µM] | IC50 [2] | IC50 [3] [µM] | CC50 [4] [µM] | CC50 [5] [µM] | selectivity ratio [6] | selectivity ratio [7] | Activity [8] |
| --- | --- | --- | --- | --- | --- | --- | --- | --- |
| CC(C)(O)CCc1ccc(O)c2c(=O)c3c(O)c4c(cc3oc12)O[C@H]1OC=C[C@@]41O [AUSTOCYSTIN D] | 1.6 | 4 µM | 0.46 | 7.8 | 7.8 | 4.9 | 2 | – |
| COC1=C2C(=CC3Oc4ccc(Cl)c(OC)c4C(=O)C13)O[C@H]1O[C@H](OC)C[C@@H]21 (stereo partly drawn) | 11 | 5.1 µM | – | > 40 | > 40 | > 3.6 | > 7.8 | – |
| CC(C)(O)CCc1ccc(O)c2c1OC1C=C3O[C@H]4OCC[C@H]4C3=C(O)C1C2=O (stereo partly drawn) | 1 | 3.6 µM | – | 5.2 | 5.2 | 5.2 | 1.4 | – |
| CC(C)(O)C[C@H](O)c1ccc(O)c2c1OC1C=C3O[C@H]4OC=C[C@H]4C3=C(O)C1C2=O (stereo partly drawn) | 1.2 | 7.5 µM | 0.46 | 8.1 | 8.1 | 6.8 | 1.1 | – |
| COC1=C2C(=CC3Oc4c(OC)cc(Cl)c(OC)c4C(=O)C13)O[C@H]1OC=C[C@@H]21 (stereo partly drawn) | 7.1 | 13 µM | – | 12 | 12 | 1.7 | 0.92 | – |
| CCCCC[C@H](OC)c1c(O)cc2c(c1O)C(=O)C1C(O)=CC(O)=CC1C2=O (stereo partly drawn) | > 40 | > 40 µM | – | > 40 | > 40 | – | – | – |
| CC(C)=CCc1ccc(O)c2c1OC1C=C3O[C@H]4OC=C[C@@]4(O)C3=C(O)C1C2=O (stereo partly drawn) | 14 | 16 µM | – | 15 | 15 | 1.1 | 0.94 | – |
| COc1ccc(CCC(C)(C)O)c2c1C(=O)C1C(O)=C3C(=CC1O2)O[C@H]1OC=C[C@@]31O (stereo partly drawn) | 1 | 8.4 µM | 0.46 | 14 | 14 | 14 | 1.7 | Dose-Dependent Effect |
| C[C@]12CCC[C@H](O1)c1c(cc3c(c1O)C(=O)c1c(O)cc(O)cc1C3=O)O2 | 4.8 | 22 µM | – | > 40 | > 40 | > 8.3 | > 1.8 | – |
| CCCCC[C@H](O)c1c(O)cc2c(c1O)C(=O)C1C(O)=CC(O)=CC1C2=O (stereo partly drawn) | > 40 | 17 µM | – | > 40 | > 40 | – | > 2.4 | – |
| COc1cc(OC)c2c(c1)C(=O)C1C=C3O[C@@]4(C)CC[C@H](O)[C@H](O4)C3=C(O)C1C2=O (stereo partly drawn) | > 40 | 7 µM | – | > 40 | > 40 | – | > 5.7 | – |
| COC1=C2C(=CC3Oc4ccc(Cl)c(OC)c4C(=O)C13)O[C@H]1O[C@@H](OC)C[C@@H]21 (stereo partly drawn) | 27 | 11 µM | – | > 40 | > 40 | > 1.5 | > 3.6 | – |
| CO[C@@H]1C[C@@]2(O)C3=C(O)C4C(=O)c5c(O)ccc(CCC(C)(C)O)c5OC4C=C3O[C@H]2O1 (stereo partly drawn) | 1.3 | 3.8 µM | – | 7.7 | 7.7 | 5.9 | 2 | – |
| COC1=C2C(=CC3Oc4cccc(O)c4C(=O)C13)O[C@H]1OC=C[C@@]21O (stereo partly drawn) | > 40 | > 40 µM | – | > 40 | > 40 | – | – | – |
| COC1=C2C(=CC3Oc4c(OC)cc(Cl)c(OC)c4C(=O)C13)O[C@H]1O[C@@H](O)C[C@@H]21 (stereo partly drawn) | 11 | 10 µM | – | 31 | 31 | 2.8 | 3.1 | – |
| CO[C@H]1C[C@@]2(O)C3=C(O)C4C(=O)c5c(O)ccc(CCC(C)(C)O)c5OC4C=C3O[C@H]2O1 (stereo partly drawn) | 1.2 | 4.3 µM | – | 8.9 | 8.9 | 7.4 | 2.1 | – |
| COC1=C2C(=CC3Oc4ccc(Cl)c(OC)c4C(=O)C13)O[C@H]1O[C@H](OC(C)=O)C[C@@H]21 (stereo partly drawn) | 16 | 20 µM | – | 28 | 28 | 1.8 | 1.4 | – |
| CO[C@@H]1C[C@H]2C3=C(O)C4C(=O)c5c(O)ccc(CCC(C)(C)O)c5OC4C=C3O[C@H]2O1 (stereo partly drawn) | 2.1 | 4.8 µM | – | 12 | 12 | 5.7 | 2.5 | – |
| COC1=C2C(=CC3Oc4c(CCC(C)(C)O)ccc(O)c4C(=O)C13)O[C@H]1OC=C[C@@H]21 (stereo partly drawn) | 4 | 5.8 µM | 0.46 | 17 | 17 | 4.3 | 2.9 | – |
| O=C1c2c(O)cccc2OC2C=C3O[C@H]4OC=C[C@@]4(O)C3=C(O)C12 (stereo partly drawn) | 9.4 | > 40 µM | – | > 40 | > 40 | > 4.2 | – | – |
| CO[C@H]1C[C@H]2C3=C(O)C4C(=O)c5c(O)ccc(CCC(C)(C)O)c5OC4C=C3O[C@H]2O1 (stereo partly drawn) | 1.1 | 7.9 µM | – | 15 | 15 | 14 | 1.9 | Dose-Dependent Effect |
| COc1c(C)c2c(c(O)c1C/C=C(\C)CCC(=O)OCCN1CCOCC1)C(=O)OC2 [MYCOPHENOLATE MOFETIL] | – | 0.21 µg/mL | – | – | – | – | – | – |
| CC(C)(O)C[C@H](O)c1ccc(O)c2c1OC1C=C3O[C@H]4OC=C[C@@]4(O)C3=C(O)C1C2=O (stereo partly drawn) | 0.93 | 12 µM | 0.46 | 16 | 16 | 17 | 1.3 | Dose-Dependent Effect |
| COc1c(Cl)ccc2c1C(=O)C1C(O)=C3C(=CC1O2)O[C@H]1OC=C[C@@]31O (stereo partly drawn) | > 40 | > 40 µM | – | > 40 | > 40 | – | – | – |
